Laboratory results reported in patent EP2262764B1, “NOVEL N-BENZYLAMIDE SUBSTITUTED DERIVATIVES OF 2-(ACYLAMIDO)ACETIC ACID AND 2-(ACYLAMIDO)PROPIONIC ACIDS: POTENT NEUROLOGICAL AGENTS” (The University of North Carolina At Chapel Hill, priority 2008, dated 2009).
Like-named read-outs stand apart in the source and are kept apart here.

Experiments:
[1] = test system: maximal electroshock (MES)-induced seizures; assay: maximal electroshock seizure (MES) test, mice ip; settings: for ED50: Mus musculus, ip
Text: The structure-activity relationship of functionalized amino acids (1).

6 Hz seizure model = assay: 6 Hz seizure model, mice ip
neurologic toxicity [2] = assay: neurologic toxicity (Tox), rat po; format: in vivo; settings: for TD50: in vivo
[3] = test system: maximal electroshock (MES)-induced seizures; assay: maximal electroshock seizure (MES) test, rat po; settings: for PI / MES, ED50: Rat (po); for PI: PI = TD50/ED50; for ED50: Rattus norvegicus, po
neurologic toxicity [4] = assay: neurologic toxicity (Tox), rotorod test, mice ip; settings: for TD50: mouse, in vivo, ip, Tox, TD50, Mice (ip)
[5] = test system: bi-phasic licking response; assay: formalin test (0.5% formalin into hind paw, bi-phasic licking response); format: in vivo, mouse; settings: dose 16.0 (CH2C≡CH/H), 8.0 (CH3/N3), 20.0 (CH2C≡CH/N3) mg/kg
Method: Compounds of the present invention were active in treating pain in a formalin test carried out in accordance with standard techniques, as described in S. Hunskaar et al., J. Neurosci. Methods 14: 69-76 (1985). Briefly, 0.5% formalin is injected into the mouse hind paw to elicit a bi-phasic licking response, where the first acute phase is thought to correspond to the direct stimulation of peripheral fibers and the second (inflammatory) phase is caused by the release of inflammatory mediators.

[6] = neurologic toxicity (Tox), rat po; format: in vivo; settings: in vivo, time in hours in brackets
[7] = neurologic toxicity (Tox), rotorod test, mice ip; settings: mouse, in vivo, ip, Tox, TD50, Mice (ip); time in hours in second brackets; [x; y] = between doses x and y
[8] = test system: maximal electroshock (MES)-induced seizures; settings: rat, in vivo, po
[9] = read-out: MES ED50, values of the running text, mice (ip)
[10] = read-out: MES, ED50, Mice (ip), time in hours in second brackets, [x, y] = between doses x and y
[11] = time in hours in second brackets, [x, y] = between doses x and y
[12] = read-out: MES, ED50, Rat (po), time in hours in brackets
[13] = read-out: MES, ED50, mice, intraperitoneally (ip), 95% confidence intervals in parentheses
[14] = read-out: MES, ED50, Mice (ip), time of peak effect in hours in brackets in the cell
[15] = read-out: MES, ED50, Rat (po), time of peak effect in hours in brackets in the cell
[16] = Mice (ip), time in hours in second brackets, [x, y] = between doses x and y
[17] = time in hours in brackets in the cell
[18] = rotorod test, time of peak effect in hours in brackets in the cell

CC(=O)NC(C)C(=O)NCc1ccccc1 (racemic) [(R,S)-4]
ED50 ([1]; read-out: MES, ED50): 77 mg/kg

CC(=O)NC(C(=O)NCc1ccccc1)c1ccccc1 (racemic) [(R,S)-6]
ED50 ([1]; read-out: MES ED50): 32 mg/kg | ED50 ([1]; read-out: MES, ED50): 32 mg/kg

CCOCC(NC(C)=O)C(=O)NCc1ccccc1 (racemic) [(R,S)-10]
ED50 [1, 9]: 17 mg/kg

C=CCOCC(NC(C)=O)C(=O)NCc1ccccc1 (racemic) [(R,S)-11]
ED50 [1, 9]: 30 to 100 mg/kg

COC[C@@H](NC(C)=O)C(=O)NCc1ccc(OCc2cccc(F)c2)cc1 [(R)-3, (R)-2-Acetamido-N-(4-(3-fluorobenzyloxy)benzyl)-3-methoxypropanamide]
PI ([1]; Mice (ip), PI = TD50/ED50): ∼9.3 | ED50 [1, 10]: 10 to 30 mg/kg | 6Hz, ED50 (given as fraction) (6 Hz seizure model; Mice (ip), […], dose not given): 2/4 [0.25] | TD50 (neurologic toxicity [2]; time in hours in brackets): > 30 mg/kg | Tox, TD50 (neurologic toxicity [2]; time in hours in brackets): > 500 [0.5] mg/kg | PI [3]: > 36

COC[C@@H](NC(C)=O)C(=O)NCc1ccc(N=[N+]=[N-])cc1 [(R)-5, (R)-N-(4-Azidobenzyl)-2-acetamido-3-methoxypropanamide, reference compound]
TD50 (neurologic toxicity [2]; time in hours in brackets): > 250 mg/kg | TD50 (neurologic toxicity [4]; [11]): 46.2 mg/kg | PI [3]: > 64 | ED50 [3, 12]: 3.9 mg/kg | Area Under the Curve, % of Control ([5]; Acute phase): 58.67% | Area Under the Curve, Drug Tested ([5]; Acute phase): 131.4 | Area Under the Curve, % of Control ([5]; Inflammatory phase): 106.22% | Area Under the Curve, Drug Tested ([5]; Inflammatory phase): 694.5

COCC#Cc1ccc(CNC(=O)[C@@H](COC)NC(C)=O)cc1 [(R)-6, (R)-2-Acetamido-3-methoxy-N-(4-(3-methoxyprop-1-ynyl)benzyl)propanamide, reference compound]
PI ([1]; Mice (ip), PI = TD50/ED50): ∼2.8 | ED50 [1, 10]: 3 to 10 mg/kg | ED50 [1, 13]: 26 mg/kg | TD50 (neurologic toxicity [2]; time in hours in brackets): < 30 mg/kg | Tox (death) (neurologic toxicity [4]; Mice (ip), observation printed in the Tox, TD50 column): Death at 100 | TD50 (neurologic toxicity [4]; [11]): 10 to 30 mg/kg | PI [3]: > 30

C#CCOC[C@@H](NC(C)=O)C(=O)NCc1ccccc1 [(R)-7, (R)-N-Benzyl-2-acetamido-3-(prop-2-ynyloxy)propanamide]
Area Under the Curve, % of Control ([5]; Acute phase): 48.42% | Area Under the Curve, Drug Tested ([5]; Acute phase): 142.9 | Area Under the Curve, % of Control ([5]; Inflammatory phase): 54.99% | Area Under the Curve, Drug Tested ([5]; Inflammatory phase): 468.3

C#CCOC[C@@H](NC(C)=O)C(=O)NCc1ccccc1 [(R)-7]
ED50 [1, 10]: 10 to 30 mg/kg | ED50 [1, 14]: 16 mg/kg | TD50 [6]: > 500 mg/kg | TD50 [7]: 30 to 100 mg/kg | ED50 [3, 12]: 16 mg/kg | ED50 [3, 15]: 8 mg/kg

C#CCOC[C@@H](NC(C)=O)C(=O)NCc1ccc(N=[N+]=[N-])cc1 [(R)-8, (R)-N-(4-Azidobenzyl)-2-acetamido-3-(prop-2-ynyloxy)propanamide]
Area Under the Curve, % of Control ([5]; Acute phase): 58.28% | Area Under the Curve, Drug Tested ([5]; Acute phase): 119.9 | Area Under the Curve, % of Control ([5]; Inflammatory phase): 78.17% | Area Under the Curve, Drug Tested ([5]; Inflammatory phase): 414.3

C#CCOC[C@@H](NC(C)=O)C(=O)NCc1ccc(N=[N+]=[N-])cc1 [(R)-8]
ED50 ([1]; read-out: MES, ED50): 20 mg/kg | TD50 [6]: > 500 mg/kg | TD50 [7]: 100 to 300 mg/kg | ED50 [3, 12]: 45 mg/kg | ED50 [3, 15]: 12 mg/kg

C#CCOC[C@@H](NC(C)=O)C(=O)NCc1ccc(N=C=S)cc1 [(R)-9]
TD50 [6]: > 30 mg/kg | TD50 [7]: 68 mg/kg | ED50 [3, 12]: > 30 mg/kg | ED50 [3, 15]: > 30 mg/kg

COC[C@@H](NC(C)=O)C(=O)NCc1ccc(C(F)(F)F)cc1 [(R)-10]
PI ([1]; Mice (ip), PI = TD50/ED50): ∼3.1 | ED50 [1, 10]: 30 to 100 mg/kg | TD50 [6]: > 30 mg/kg | TD50 [7]: 100 to 300 mg/kg | ED50 [3, 12]: < 30 mg/kg

COC[C@@H](NC(C)=O)C(=O)NCc1ccc(COc2cccc(F)c2)cc1 [(R)-11]
PI ([1]; Mice (ip), PI = TD50/ED50): ∼2.8 | ED50 [1, 10]: 3 to 10 mg/kg | Tox, TD50 (neurologic toxicity [2]; time in hours in brackets): > 30 [0.25 to 4.0] mg/kg | TD50 [7]: 10 to 30 mg/kg | ED50 [3, 12]: < 30 mg/kg

COC[C@H](NC(C)=O)C(=O)NCc1ccc(OCc2cccc(F)c2)cc1 [(S)-3, (S)-2-Acetamido-N-(4-(3-fluorobenzyloxy)benzyl)-3-methoxypropanamide]
ED50 [1, 10]: > 300 mg/kg | TD50 (neurologic toxicity [4]; [11]): > 300 mg/kg

CC(=O)N[C@@H](C)C(=O)NCc1ccccc1 [(S)-4]
ED50 ([1]; read-out: MES, ED50): 550 mg/kg

COC[C@H](NC(C)=O)C(=O)NCc1ccc(N=[N+]=[N-])cc1 [(S)-5, (S)-N-(4-Azidobenzyl)-2-acetamido-3-methoxypropanamide, reference compound]
ED50 [1, 10]: 100 to 300 mg/kg | ED50 [1, 13]: > 25 mg/kg | ED50 (6 Hz seizure model; Mus musculus, ip, read-out: 6Hz, ED50): ~100 mg/kg | TD50 (neurologic toxicity [2]; time in hours in brackets): > 30 mg/kg | Tox, TD50 (neurologic toxicity [4]; [16]): > 300 mg/kg | ED50 [3, 12]: > 30 mg/kg

CC(=O)N[C@H](C(=O)NCc1ccccc1)c1ccccc1 [(S)-6]
ED50 ([1]; read-out: MES, ED50): > 300 mg/kg

C#CCOC[C@H](NC(C)=O)C(=O)NCc1ccccc1 [(S)-7, (S)-N-Benzyl-2-acetamido-3-(prop-2-ynyloxy)propanamide]
ED50 [1, 14]: > 300 mg/kg | TD50 (neurologic toxicity [2]; [17]): > 30 mg/kg | TD50 (neurologic toxicity [4]; [18]): > 300 mg/kg | ED50 [3, 15]: > 30 mg/kg

C#CCOC[C@H](NC(C)=O)C(=O)NCc1ccc(N=[N+]=[N-])cc1 [(S)-8, (S)-N-(4-Azidobenzyl)-2-acetamido-3-(prop-2-ynyloxy)propanamide]
ED50 [1, 14]: 163 mg/kg | TD50 (neurologic toxicity [2]; [17]): > 30 mg/kg | TD50 (neurologic toxicity [4]; [18]): > 300 mg/kg | ED50 [3, 15]: > 30 mg/kg

C#CCOC[C@H](NC(C)=O)C(=O)NCc1ccc(N=C=S)cc1 [(S)-9, (S)-N-(4-Isothiocyanatobenzyl)-2-acetamido-3-(prop-2-ynyloxy)propanamide]
ED50 ([1]; read-out: MES, ED50): > 300 mg/kg | TD50 (neurologic toxicity [4]; [18]): > 300 mg/kg

CCC1(c2ccccc2)C(=O)NC(=O)NC1=O [Phenobarbital, reference compound]
ED50 [1, 10]: 22 mg/kg | ED50 [1, 14]: 22 mg/kg | Tox, TD50 (neurologic toxicity [2]; time in hours in brackets): 61 [0.5] mg/kg | Tox, TD50 (neurologic toxicity [2]; [17]): 61 [0.5] mg/kg | ED50 [3, 12]: 9.1 mg/kg | ED50 [3, 15]: 9 mg/kg

O=C1NC(=O)C(c2ccccc2)(c2ccccc2)N1 [phenytoin, reference compound]
TD50 (neurologic toxicity [2]; [17]): > 3000 mg/kg | MES, ED50 ([3]; time in hours in brackets): 30 [4] mg/kg | ED50 ([3]; read-out: MES, ED50): 30 mg/kg

CCCC(CCC)C(=O)O [valproate]
PI ([1]; Mice (ip), PI = TD50/ED50): 1.6 | PI ([1]; Mice (ip), protective index (TD50/ED50)): 1.6 | MES, ED50 [1, 16]: 270 [0.25] mg/kg | ED50 ([1]; read-out: MES, ED50): 270 mg/kg | MES, ED50 ([3]; time in hours in brackets): 490 [0.5] mg/kg | ED50 ([3]; read-out: MES, ED50): 490 mg/kg | PI [8]: 0.6
